Results as given in publication PMC4871426, “The Regulation of para-Nitrophenol Degradation in Pseudomonas putida DLL-E4” (PLoS ONE, 2016).

How the values were obtained:
[1] = target: T1, PnpC1C2 (Pseudomonas putida, UniProt C6FI41); experiment: UV spectral change, absorption increase at […] nm; format: biochemical; details: conditions as in an earlier paper
T1 construct: gene pnpC2; two-subunit complex, C-terminal His tag, expressed in E. coli BL21(DE3), Ni-NTA purified; with hydroquinone dioxygenase alpha subunit (hydroquinone 1,2-dioxygenase small subunit)
T1 sequence (C6FI41 1-339): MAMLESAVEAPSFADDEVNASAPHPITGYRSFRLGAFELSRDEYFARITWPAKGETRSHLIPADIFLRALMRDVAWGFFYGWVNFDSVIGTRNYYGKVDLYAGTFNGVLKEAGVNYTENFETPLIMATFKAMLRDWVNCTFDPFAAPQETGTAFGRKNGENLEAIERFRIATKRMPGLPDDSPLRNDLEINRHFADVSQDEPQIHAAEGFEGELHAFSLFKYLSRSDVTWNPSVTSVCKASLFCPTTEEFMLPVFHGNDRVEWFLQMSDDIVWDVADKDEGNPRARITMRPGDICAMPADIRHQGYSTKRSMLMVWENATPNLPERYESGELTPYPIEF
T1 sequence (C6FI40 1-164 partner): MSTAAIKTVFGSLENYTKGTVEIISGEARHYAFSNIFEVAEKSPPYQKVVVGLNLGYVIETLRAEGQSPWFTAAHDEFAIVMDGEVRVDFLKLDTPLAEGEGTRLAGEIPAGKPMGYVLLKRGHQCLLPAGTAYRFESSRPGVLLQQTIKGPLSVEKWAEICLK

[2] = target: T2, PnpA (Pseudomonas putida, UniProt C6FI48); experiment: colour change of PNP oxidation by purified enzyme; format: biochemical; details: conditions as in an earlier paper
T2 construct: His-tagged (pET-pnpAhis), expressed in E. coli BL21(DE3), purified
T2 sequence (C6FI48 1-418): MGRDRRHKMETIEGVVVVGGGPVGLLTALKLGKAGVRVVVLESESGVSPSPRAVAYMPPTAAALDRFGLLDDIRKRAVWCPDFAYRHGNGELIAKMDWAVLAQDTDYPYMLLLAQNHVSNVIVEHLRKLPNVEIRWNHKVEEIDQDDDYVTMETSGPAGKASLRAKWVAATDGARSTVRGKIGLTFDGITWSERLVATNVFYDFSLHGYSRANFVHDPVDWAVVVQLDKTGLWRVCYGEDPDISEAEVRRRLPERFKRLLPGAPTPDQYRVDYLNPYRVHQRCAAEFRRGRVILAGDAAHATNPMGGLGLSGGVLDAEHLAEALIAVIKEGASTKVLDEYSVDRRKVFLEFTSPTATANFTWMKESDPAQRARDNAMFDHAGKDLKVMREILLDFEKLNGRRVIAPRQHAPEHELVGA

| SMILES | UV spectral change, absorption increase at 320 nm [1] | colour change of PNP oxidation by purified enzyme [2] |
| --- | --- | --- |
| Oc1ccc(O)cc1 [hydroquinone] | PnpC1C2 and PnpC1C2b both transformed HQ into γ-hydroxymuconic semialdehyde in vitro |  |
| O=[N+]([O-])c1ccc(O)cc1 [para-nitrophenol] |  | only PnpA had the ability to oxidize PNP |
